Laboratory results published in paper PMC5896373 (Molecular Pharmacology, 2018).
pIC50: −log10 of the molar value.

Tests used:
Experiment in all cases: Two-electrode voltage clamp of ATP-evoked currents in Xenopus oocytes
Type in all cases: cell-based
[1] = target: T1, chimeric P2X7/1 receptor 279–285 (left flipper) (Homo sapiens, UniProt Q99572, DEL279-281/I21V/M24R/N16P/N25R/N284E/Q22R/R20V/S23N/T19I/T282Y/T283E/V285K/Y26L); settings: chimera 279–285; for pIC50: inhibition of EC90 ATP response
T1 construct: expressed in transfected cells; host or cells: Xenopus laevis oocytes (cRNA injection)
T1 sequence (Q99572 with tags, fused parts or gaps N16P/T19I/R20V/I21V/Q22R/S23N/M24R/N25R/Y26L/DEL279-281/T282Y/T283E/N284E/V285K): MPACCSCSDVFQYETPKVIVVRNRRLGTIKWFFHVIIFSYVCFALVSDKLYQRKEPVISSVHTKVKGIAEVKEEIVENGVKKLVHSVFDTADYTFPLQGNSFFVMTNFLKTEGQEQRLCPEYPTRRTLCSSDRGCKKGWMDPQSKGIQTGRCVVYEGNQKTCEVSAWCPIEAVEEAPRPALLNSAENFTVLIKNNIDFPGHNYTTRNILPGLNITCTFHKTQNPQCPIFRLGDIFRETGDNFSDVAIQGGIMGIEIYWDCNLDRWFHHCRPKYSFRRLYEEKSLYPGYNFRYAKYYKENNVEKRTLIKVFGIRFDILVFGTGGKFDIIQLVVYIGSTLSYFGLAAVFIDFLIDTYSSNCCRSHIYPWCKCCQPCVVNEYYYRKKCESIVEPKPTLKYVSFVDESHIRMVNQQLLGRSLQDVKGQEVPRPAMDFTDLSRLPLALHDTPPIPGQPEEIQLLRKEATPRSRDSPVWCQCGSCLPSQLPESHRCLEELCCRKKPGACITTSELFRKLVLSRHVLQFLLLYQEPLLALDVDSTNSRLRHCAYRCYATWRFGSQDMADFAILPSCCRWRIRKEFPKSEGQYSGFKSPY
Protocol: (§1) The production of the correct mutations and absence of coding errors was determined by DNA sequencing (Automated ABI Sequencing Service, University of Leicester, UK). cRNA was generated for the mutants and 50 nl (50 ng) was injected into manually defoliculated stage V Xenopus laevis oocytes using an Inject+Matic microinjector (J.A. Gabay, Inject+Matic, Geneva, Switzerland). Injected oocytes were stored at 16°C in ND96 buffer [in millimolar concentrations, NaCl 96, KCl 2, CaCl2 1.8, MgCl2 1, sodium pyruvate 5, and HEPES 5 (pH 7.6) supplemented with 50 μg/ml gentamycin and 50 μg/ml tetracycline]. Three to seven days postinjection two-electrode voltage clamp recordings were made from oocytes bathed in divalent-free ND96 buffer (in millimolar concentrations, NaCl 96, KCl 2, sodium pyruvate 5, HEPES 5, and 0.1 flufenamic acid, pH 7.6). Oocytes were voltage clamped at a holding potential of −60 mV with a GeneClamp500B amplifier (Molecular Devices).
(§2) Inhibition by the antagonists was expressed as the percentage of the peak current amplitude of an EC90 concentration of ATP recorded before the application of antagonist (ATP gave reproducible responses to ATP in the absence of antagonist). Inhibition curves were fitted with the Hill equation (variable slope) using GraphPad Prism 6 (GraphPad Software, San Diego, CA). […] Individual concentration-response curves were generated for individual experiments, and statistical analysis was carried out on the data generated. […] Data are shown as mean ± S.E.M. In all cases n ≥ 3 for all data points.

[2] = target: T2, chimeric P2X7/1 receptor 210–217 (Homo sapiens, UniProt Q99572, G211E/I214K/I21V/INS213AAHM/L212V/M24R/N16P/N25R/P210E/Q22R/R20V/S23N/T19I/T217L/Y26L)
T2 construct: expressed in transfected cells; host or cells: Xenopus laevis oocytes (cRNA injection)
T2 sequence (Q99572 with tags, fused parts or gaps N16P/T19I/R20V/I21V/Q22R/S23N/M24R/N25R/Y26L/P210E/G211E/L212V/INS213AAHM/I214K/T217L): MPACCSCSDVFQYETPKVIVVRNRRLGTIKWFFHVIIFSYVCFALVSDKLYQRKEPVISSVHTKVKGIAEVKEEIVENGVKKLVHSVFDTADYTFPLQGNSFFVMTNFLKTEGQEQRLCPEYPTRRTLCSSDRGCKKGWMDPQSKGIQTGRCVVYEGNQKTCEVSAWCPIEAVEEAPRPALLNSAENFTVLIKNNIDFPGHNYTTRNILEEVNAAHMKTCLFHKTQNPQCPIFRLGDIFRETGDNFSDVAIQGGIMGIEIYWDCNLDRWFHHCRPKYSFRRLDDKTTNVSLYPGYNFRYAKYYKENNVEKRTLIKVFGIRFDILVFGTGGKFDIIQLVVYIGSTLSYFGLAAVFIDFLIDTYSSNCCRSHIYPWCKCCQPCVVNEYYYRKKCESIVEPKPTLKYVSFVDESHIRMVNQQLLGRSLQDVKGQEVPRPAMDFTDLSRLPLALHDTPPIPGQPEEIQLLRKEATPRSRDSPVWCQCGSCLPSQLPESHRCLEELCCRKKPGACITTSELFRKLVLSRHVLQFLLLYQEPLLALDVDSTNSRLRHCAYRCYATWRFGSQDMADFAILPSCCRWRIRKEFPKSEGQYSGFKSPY
Protocol: as §1, §2

P2X7R point mutant Q116A = target: T3, P2X7R point mutant Q116A (Homo sapiens, UniProt Q99572, I21V/M24R/N16P/N25R/Q116A/Q22R/R20V/S23N/T19I/Y26L); settings: EC90 ATP, mean ± S.E.M.
T3 construct: expressed in transfected cells; host or cells: Xenopus laevis oocytes (cRNA injection)
Protocol: (§3) Injected oocytes were stored at 16°C in ND96 buffer [in millimolar concentrations, NaCl 96, KCl 2, CaCl2 1.8, MgCl2 1, sodium pyruvate 5, and HEPES 5 (pH 7.6) supplemented with 50 μg/ml gentamycin and 50 μg/ml tetracycline]. Three to seven days postinjection two-electrode voltage clamp recordings were made from oocytes bathed in divalent-free ND96 buffer (in millimolar concentrations, NaCl 96, KCl 2, sodium pyruvate 5, HEPES 5, and 0.1 flufenamic acid, pH 7.6). Oocytes were voltage clamped at a holding potential of −60 mV with a GeneClamp500B amplifier (Molecular Devices).
as §2

[3] = target: T4, chimeric P2X7/1 receptor 122–128 (Homo sapiens, UniProt Q99572, DEL124-124/I21V/L128I/M24R/N16P/N25R/Q22R/R125E/R126G/R20V/S23N/T127G/T19I/Y122H/Y26L)
T4 construct: expressed in transfected cells; host or cells: Xenopus laevis oocytes (cRNA injection)
T4 sequence (Q99572 with tags, fused parts or gaps N16P/T19I/R20V/I21V/Q22R/S23N/M24R/N25R/Y26L/Y122H/DEL124-124/R125E/R126G/T127G/L128I): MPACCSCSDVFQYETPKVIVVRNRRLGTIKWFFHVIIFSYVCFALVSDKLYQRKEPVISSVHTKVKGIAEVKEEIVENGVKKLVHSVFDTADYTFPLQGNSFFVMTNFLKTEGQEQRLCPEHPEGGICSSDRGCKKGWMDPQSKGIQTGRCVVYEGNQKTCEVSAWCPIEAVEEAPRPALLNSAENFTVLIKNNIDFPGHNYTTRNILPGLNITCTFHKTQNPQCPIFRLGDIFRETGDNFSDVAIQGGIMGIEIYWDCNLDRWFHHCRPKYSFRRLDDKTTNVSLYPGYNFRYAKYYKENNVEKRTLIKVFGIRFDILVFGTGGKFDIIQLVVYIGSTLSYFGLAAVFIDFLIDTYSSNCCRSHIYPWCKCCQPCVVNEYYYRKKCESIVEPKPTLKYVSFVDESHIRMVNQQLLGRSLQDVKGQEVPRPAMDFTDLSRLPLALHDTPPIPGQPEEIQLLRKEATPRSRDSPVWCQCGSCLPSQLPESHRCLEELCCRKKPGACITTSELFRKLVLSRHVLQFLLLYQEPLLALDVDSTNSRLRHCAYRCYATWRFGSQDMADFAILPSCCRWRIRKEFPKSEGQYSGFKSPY
Protocol: Additional point mutants were made using the QuikChange mutagenesis kit (Stratagene California, La Jolla, CA). The production of the correct mutations and absence of coding errors was determined by DNA sequencing (Automated ABI Sequencing Service, University of Leicester, UK). cRNA was generated for the mutants and 50 nl (50 ng) was injected into manually defoliculated stage V Xenopus laevis oocytes using an Inject+Matic microinjector (J.A. Gabay, Inject+Matic, Geneva, Switzerland). Injected oocytes were stored at 16°C in ND96 buffer [in millimolar concentrations, NaCl 96, KCl 2, CaCl2 1.8, MgCl2 1, sodium pyruvate 5, and HEPES 5 (pH 7.6) supplemented with 50 μg/ml gentamycin and 50 μg/ml tetracycline]. Three to seven days postinjection two-electrode voltage clamp recordings were made from oocytes bathed in divalent-free ND96 buffer (in millimolar concentrations, NaCl 96, KCl 2, sodium pyruvate 5, HEPES 5, and 0.1 flufenamic acid, pH 7.6). Oocytes were voltage clamped at a holding potential of −60 mV with a GeneClamp500B amplifier (Molecular Devices).
as §2

P2X7R point mutant M105A = target: T5, P2X7R point mutant M105A (Homo sapiens, UniProt Q99572, I21V/M105A/M24R/N16P/N25R/Q22R/R20V/S23N/T19I/Y26L); settings: EC90 ATP, mean ± S.E.M.
T5 construct: expressed in transfected cells; host or cells: Xenopus laevis oocytes (cRNA injection)
T5 sequence (Q99572 whole entry N16P/T19I/R20V/I21V/Q22R/S23N/M24R/N25R/Y26L/M105A): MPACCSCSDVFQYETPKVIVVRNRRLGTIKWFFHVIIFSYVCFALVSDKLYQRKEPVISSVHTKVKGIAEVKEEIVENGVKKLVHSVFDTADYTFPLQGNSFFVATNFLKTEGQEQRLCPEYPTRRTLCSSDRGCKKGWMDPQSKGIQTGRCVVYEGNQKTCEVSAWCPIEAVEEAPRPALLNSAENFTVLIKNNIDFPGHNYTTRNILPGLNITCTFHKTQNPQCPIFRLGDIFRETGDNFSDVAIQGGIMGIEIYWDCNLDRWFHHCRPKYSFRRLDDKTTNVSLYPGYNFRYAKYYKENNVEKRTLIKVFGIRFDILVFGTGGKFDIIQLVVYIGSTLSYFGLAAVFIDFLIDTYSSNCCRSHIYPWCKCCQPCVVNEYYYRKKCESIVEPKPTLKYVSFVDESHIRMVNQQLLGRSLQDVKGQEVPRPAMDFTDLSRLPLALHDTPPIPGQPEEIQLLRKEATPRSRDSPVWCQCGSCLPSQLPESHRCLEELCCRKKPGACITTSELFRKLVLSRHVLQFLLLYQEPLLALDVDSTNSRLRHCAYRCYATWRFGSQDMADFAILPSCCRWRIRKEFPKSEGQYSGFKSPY
Protocol: as §3, §2

T3 sequence (Q99572 whole entry N16P/T19I/R20V/I21V/Q22R/S23N/M24R/N25R/Y26L/Q116A): as the sequence (Q99572 whole entry N16P/T19I/R20V/I21V/Q22R/S23N/M24R/N25R/Y26L/M105A) above, with A105M, Q116A counted along it

## Cl.Clc1cccc(-c2nnnn2Cc2cccnc2)c1Cl.O [A438079, 3-(5-(2,3-dichlorophenyl)-1H-tetrazol-1-yl)methyl pyridine hydrochloride hydrate]
[1]
  pIC50: 4.50
[2]
  pIC50: 6.60
P2X7R point mutant Q116A
  pIC50: 5.90
[3]
  pIC50: 6.10
P2X7R point mutant M105A
  pIC50: 5.80

## COc1ccc(CC(=O)NC(N=C(NC#N)Nc2cccc3ncccc23)C(C)(C)C)cc1OC (stereo not shown) [A740003, N-[1-[[(cyanoamino)(5-quinolinylamino)methylene]amino]-2,2-dimethylpropyl]-3,4-dimethoxybenzeneacetamide]
[1]
  fold decrease in antagonist sensitivity relative to P2X7-2Nβ: ~9 fold
  pIC50: 6.20
[2]
  pIC50: 7.10
[2]; chimera 210–217
  effect on antagonist sensitivity relative to P2X7-2Nβ: unaffected
P2X7R point mutant Q116A
  pIC50: 6.50
[3]
  pIC50: 7.00
[3]; chimera 122–128
  effect on antagonist potency relative to P2X7-2Nβ: no effect
P2X7R point mutant M105A
  pIC50: 4.90
